Source: PMC2363627 (British Journal of Cancer, 2001)
Values joined by “and” are separate entries in the source; they are usually repeats but may differ in a detail not shown here. Equal entries are not always repeated. “Also recorded” adds a separate entry of the source. One block for each compound: values may come before it.

What was measured:
[1] = Plasma pharmacokinetics of oral paclitaxel 120 mg/m2 combined with 1000 mg oral GF120918 in cancer patients (HPLC, non-compartmental); settings: for mean AUCt of paclitaxel metabolite: after oral paclitaxel 120 mg/m2 + GF120918, n = 5, mean SD
Excerpt: (§1) Furthermore, oral administration may enable development of chronic treatment schedules resulting in sustained plasma concentrations above a pharmacological relevant threshold level. […] PATIENTS AND METHODS Patient population Patients with a histologically confirmed cancer refractory to current therapies were eligible for the study. Previous radiotherapy or chemotherapy other than taxoid therapy was allowed, provided that the last treatment was at least four weeks prior to study entry and any resulting toxicities were resolved. […] Patients were not eligible if they suffered from uncontrolled infec- tious disease, neurologic disease, bowel obstruction or sympto- matic brain metastases. Other exclusion criteria were concomitant use of known P-gp inhibitors and chronic use of H2-receptor antagonists or proton pump inhibitors. The study protocol was approved by the Medical Ethics Committee of the Institute and all patients gave written informed consent. […] The oral and i.v. course were randomized. […] Patient evaluation Pretreatment evaluation included a complete medical history and complete physical examination. Before each course, an interim history including concomitant medications taken, toxicities and performance status were registered and a physical examination was performed. Haematology was checked twice weekly after course 1 and 2 and weekly after subsequent courses. Blood chemistries including liver and renal function, serum electrolytes, total protein and albumin and glucose levels were checked weekly. All toxicities observed were graded according to the National Cancer Institute Common Toxicity Criteria (NCI CTC) (National Cancer Institute, 1988). Dose-limiting toxicities (DLT) were defined as grade 4 granulocytopenia of a duration of > 5 days, grade 4 thrombocytopenia of any duration or any grade 3/4 non- haematological toxicity except untreated nausea and vomiting. Tumour measurements were performed every other cycle, but initially after the first 2 i.v. courses. Responses were evaluated according to the WHO criteria (World Health Organization, 1979). Sample collection and analysis Blood samples for pharmacokinetic analyses were collected during course 1 and course 2. […] Blood samples were centrifuged, plasma was separated and samples were immediately stored at -20C until analysis. […] Blood samples were centrifuged at 4C, plasma was separated and samples were imme- diately stored at -20C until analysis. […] Pharmacokinetic analysis Non-compartmental pharmacokinetic methods were applied to process the results (Gibaldi and Perrier, 1982). […] The time above the threshold concentrations of 0.05 M and 0.1 M (T > 0.05 M, T > 0.1 M) was determined using linear interpola- tion. […] Statistical analysis of the data was performed using the nonparametric Mann-Whitney U-test. The a priori level of signifi- cance was P = 0.05.

[2] = Plasma pharmacokinetics of oral paclitaxel 120 mg/m2 combined with 15 mg kg-1 cyclosporin A in patients (previous study at the Institute); format: in vivo, human; settings: for mean AUCt of paclitaxel metabolite: after oral paclitaxel + CsA, n = 3, mean SD, not published before
Excerpt: as §1, with “The a priori level of signifi- cance was P = 0.05.” left out

P-gp = tested on: P-gp; set-up: method as in Hyafil et al, 1993; settings: ref Hyafil et al, 1993; cited from earlier work
[3] = Plasma pharmacokinetics of GF120918 after a single 1000 mg oral dose in cancer patients (HPLC); format: in vivo, human; settings: 1000 mg oral GF120918; mean SD
Excerpt: (§2) Furthermore, oral administration may enable development of chronic treatment schedules resulting in sustained plasma concentrations above a pharmacological relevant threshold level. […] PATIENTS AND METHODS Patient population Patients with a histologically confirmed cancer refractory to current therapies were eligible for the study. Previous radiotherapy or chemotherapy other than taxoid therapy was allowed, provided that the last treatment was at least four weeks prior to study entry and any resulting toxicities were resolved. […] Patients were not eligible if they suffered from uncontrolled infec- tious disease, neurologic disease, bowel obstruction or sympto- matic brain metastases. Other exclusion criteria were concomitant use of known P-gp inhibitors and chronic use of H2-receptor antagonists or proton pump inhibitors. The study protocol was approved by the Medical Ethics Committee of the Institute and all patients gave written informed consent. […] The oral and i.v. course were randomized. […] Patient evaluation Pretreatment evaluation included a complete medical history and complete physical examination. […] Responses were evaluated according to the WHO criteria (World Health Organization, 1979). […] The time above the threshold concentrations of 0.05 M and 0.1 M (T > 0.05 M, T > 0.1 M) was determined using linear interpola- tion. […]

[4] = Plasma pharmacokinetics of i.v. paclitaxel 175 mg/m2 as 3-hour infusion in cancer patients (limited sampling model); format: in vivo, human; settings: for AUC: human, plasma, iv
Excerpt: as §1

[5] = Toxicity in patients graded by NCI Common Toxicity Criteria; settings: one course oral paclitaxel 120 mg/m2 + 1000 mg GF120918
Excerpt: as §2

[6] = cited from earlier work
[7] = tested on: histologically confirmed cancer refractory to current therapies; experiment: Tumour response according to WHO criteria; format: in vivo, human; settings: six patients; one oral course + GF120918, subsequent i.v. paclitaxel courses
Excerpt: as §2

[8] = set-up: method as in Malingre et al, 2000; settings: ref Malingre et al, 2000, cited from earlier work
[9] = individual patients 1-6, oral 120 mg/m2 + GF120918 1000 mg

Compound: CC(=O)O[C@H]1C(=O)[C@@]2(C)[C@H]([C@H](OC(=O)c3ccccc3)[C@]3(O)C[C@H](OC(=O)[C@H](O)[C@@H](NC(=O)c4ccccc4)c4ccc(O)cc4)C(C)=C1C3(C)C)[C@]1(OC(C)=O)CO[C@@H]1C[C@@H]2O [3p-hydroxypaclitaxel]
mean AUCt of paclitaxel metabolite [1]: 360 nM·h
mean AUCt of paclitaxel metabolite [2]: 480 nM·h

Compound: CC(=O)O[C@H]1C(=O)[C@@]2(C)[C@H]([C@H](OC(=O)c3ccccc3)[C@]3(O)C[C@H](OC(=O)[C@H](O)[C@@H](NC(=O)c4ccccc4)c4ccc(O)cc4)C(C)=C1C3(C)C)[C@]1(OC(C)=O)CO[C@@H]1[C@@H](O)[C@@H]2O [6,3p-dihydroxypaclitaxel]
mean AUCt of paclitaxel metabolite [1]: 240 nM·h
mean AUCt of paclitaxel metabolite [2]: 880 nM·h

Compound: CC(=O)O[C@H]1C(=O)[C@@]2(C)[C@H]([C@H](OC(=O)c3ccccc3)[C@]3(O)C[C@H](OC(=O)[C@H](O)[C@@H](NC(=O)c4ccccc4)c4ccccc4)C(C)=C1C3(C)C)[C@]1(OC(C)=O)CO[C@@H]1C[C@@H]2O [paclitaxel]
AUC ([4]; 175 mg/m2, AUC, i.v. paclitaxel, individual patients 1-6, 175 mg/m2, 3-hour infusion): 18600 nM·h
AUC ([4]; 175 mg/m2, AUC, i.v. paclitaxel, mean SD, n = 6, 175 mg/m2, 3-hour infusion): 15900 nM·h
AUC ([4]; 175 mg/m2, mean AUC of paclitaxel, i.v. paclitaxel 175 mg/m2, 3-hour infusion, mean ± SD): 15900 nM·h
T > 0.1 µM, i.v. paclitaxel ([4]; individual patients 1-6, 175 mg/m2, 3-hour infusion): 22.3 h and 12.1 h and 20.9 h and 13.8 h and 16.6 h and 13.9 h
T > 0.1 µM, i.v. paclitaxel ([4]; mean, n = 6 (SD 4.2 printed in separate line), 175 mg/m2, 3-hour infusion): 16.6 h
tolerability of the oral combination of paclitaxel with GF120918 [5]: well tolerated; also recorded: very well tolerated
oral bioavailability of paclitaxel ([6]; background statement, no P-gp blocker, no reference given): < 10%
increase in oral bioavailability of paclitaxel by co-administration of CsA ([6]; cancer patients, oral paclitaxel + CsA, ref Meerum Terwogt et al, 1998, 1999): at least 7 fold
bioavailability of single agent oral paclitaxel ([6]; oral 60 mg/m2 without P-gp blocker, vs i.v. 175 mg/m2, ref Meerum Terwogt et al, 1998, 1999): 4%
apparent bioavailability of oral paclitaxel as a single agent ([6]; using i.v. paclitaxel data at 100 mg/m2 and 125 mg/m2 (Huizing et al, 1997), ref Meerum Terwogt et al, 1999): 6%
T > 0.1 µM, oral paclitaxel (time above 0.1 µM) [1, 9]: 8.8 h and 15.3 h and 9.6 h and 2.6 h and 4.2 h and 4.3 h
T > 0.05 M, oral paclitaxel (time above 0.05 M) [1, 9]: 15.1 h and 25.0 h and 23.9 h and 3.9 h and 6.1 h and 6.7 h
tumour responses [7]: no tumour responses were observed
mean AUC of paclitaxel ([8]; oral paclitaxel 120 mg/m2 + CsA, previously performed study, mean ± SD): 2550 ± 2290 nM·h
Cmax ([8]; read-out: Cmax, oral paclitaxel, oral 120 mg/m2 + 15 mg kg-1 cyclosporin A, n = 3, mean SD): 0.31 µM

Now from value to compound, other results behind:

mean AUCt of paclitaxel metabolite [1]: 400 nM·h
AUCt ratio 6-hydroxypaclitaxel/3p-hydroxypaclitaxel ([1]; oral paclitaxel + GF120918 (0.40/0.36)): 1.1
mean AUCt of paclitaxel metabolite [2]: 1690 nM·h
AUCt ratio 6-hydroxypaclitaxel/3p-hydroxypaclitaxel ([2]; oral paclitaxel + CsA (1.69/0.48)): 3.5
Compound: CC(=O)O[C@H]1C(=O)[C@@]2(C)[C@H]([C@H](OC(=O)c3ccccc3)[C@]3(O)C[C@H](OC(=O)[C@H](O)[C@@H](NC(=O)c4ccccc4)c4ccccc4)C(C)=C1C3(C)C)[C@]1(OC(C)=O)CO[C@@H]1[C@@H](O)[C@@H]2O [6-hydroxypaclitaxel]

mean maximum concentration of GF120918 [3]: 434 267 ng ml-1
Compound: COc1cc2c(cc1OC)CN(CCc1ccc(NC(=O)c3cccc4c(=O)c5cccc(OC)c5[nH]c34)cc1)CC2 [GF120918]
concentration at which active in in vitro models of P-gp inhibition (P-gp): around 20 nM
